Assay results published in ChEMBL document CHEMBL3714762, “Agents and methods for treating ischemic and other diseases” (2012).
Active and inactive are the calls of the source. The rule behind the calls is not given here.

Columns and labels:
[1] = target: Transient receptor potential cation channel subfamily M member 7 (Mus musculus, UniProt Q923J1); assay: Inhibition of N-terminal Flag-tagged mouse TRPM7 expressed in HEK293T cells assessed as reduction in whole cell currents by whole-cell patch clamp assay; type: cell-based, HEK-293T
Chain of Transient receptor potential cation channel subfamily M member 7 (Q923J1 whole entry): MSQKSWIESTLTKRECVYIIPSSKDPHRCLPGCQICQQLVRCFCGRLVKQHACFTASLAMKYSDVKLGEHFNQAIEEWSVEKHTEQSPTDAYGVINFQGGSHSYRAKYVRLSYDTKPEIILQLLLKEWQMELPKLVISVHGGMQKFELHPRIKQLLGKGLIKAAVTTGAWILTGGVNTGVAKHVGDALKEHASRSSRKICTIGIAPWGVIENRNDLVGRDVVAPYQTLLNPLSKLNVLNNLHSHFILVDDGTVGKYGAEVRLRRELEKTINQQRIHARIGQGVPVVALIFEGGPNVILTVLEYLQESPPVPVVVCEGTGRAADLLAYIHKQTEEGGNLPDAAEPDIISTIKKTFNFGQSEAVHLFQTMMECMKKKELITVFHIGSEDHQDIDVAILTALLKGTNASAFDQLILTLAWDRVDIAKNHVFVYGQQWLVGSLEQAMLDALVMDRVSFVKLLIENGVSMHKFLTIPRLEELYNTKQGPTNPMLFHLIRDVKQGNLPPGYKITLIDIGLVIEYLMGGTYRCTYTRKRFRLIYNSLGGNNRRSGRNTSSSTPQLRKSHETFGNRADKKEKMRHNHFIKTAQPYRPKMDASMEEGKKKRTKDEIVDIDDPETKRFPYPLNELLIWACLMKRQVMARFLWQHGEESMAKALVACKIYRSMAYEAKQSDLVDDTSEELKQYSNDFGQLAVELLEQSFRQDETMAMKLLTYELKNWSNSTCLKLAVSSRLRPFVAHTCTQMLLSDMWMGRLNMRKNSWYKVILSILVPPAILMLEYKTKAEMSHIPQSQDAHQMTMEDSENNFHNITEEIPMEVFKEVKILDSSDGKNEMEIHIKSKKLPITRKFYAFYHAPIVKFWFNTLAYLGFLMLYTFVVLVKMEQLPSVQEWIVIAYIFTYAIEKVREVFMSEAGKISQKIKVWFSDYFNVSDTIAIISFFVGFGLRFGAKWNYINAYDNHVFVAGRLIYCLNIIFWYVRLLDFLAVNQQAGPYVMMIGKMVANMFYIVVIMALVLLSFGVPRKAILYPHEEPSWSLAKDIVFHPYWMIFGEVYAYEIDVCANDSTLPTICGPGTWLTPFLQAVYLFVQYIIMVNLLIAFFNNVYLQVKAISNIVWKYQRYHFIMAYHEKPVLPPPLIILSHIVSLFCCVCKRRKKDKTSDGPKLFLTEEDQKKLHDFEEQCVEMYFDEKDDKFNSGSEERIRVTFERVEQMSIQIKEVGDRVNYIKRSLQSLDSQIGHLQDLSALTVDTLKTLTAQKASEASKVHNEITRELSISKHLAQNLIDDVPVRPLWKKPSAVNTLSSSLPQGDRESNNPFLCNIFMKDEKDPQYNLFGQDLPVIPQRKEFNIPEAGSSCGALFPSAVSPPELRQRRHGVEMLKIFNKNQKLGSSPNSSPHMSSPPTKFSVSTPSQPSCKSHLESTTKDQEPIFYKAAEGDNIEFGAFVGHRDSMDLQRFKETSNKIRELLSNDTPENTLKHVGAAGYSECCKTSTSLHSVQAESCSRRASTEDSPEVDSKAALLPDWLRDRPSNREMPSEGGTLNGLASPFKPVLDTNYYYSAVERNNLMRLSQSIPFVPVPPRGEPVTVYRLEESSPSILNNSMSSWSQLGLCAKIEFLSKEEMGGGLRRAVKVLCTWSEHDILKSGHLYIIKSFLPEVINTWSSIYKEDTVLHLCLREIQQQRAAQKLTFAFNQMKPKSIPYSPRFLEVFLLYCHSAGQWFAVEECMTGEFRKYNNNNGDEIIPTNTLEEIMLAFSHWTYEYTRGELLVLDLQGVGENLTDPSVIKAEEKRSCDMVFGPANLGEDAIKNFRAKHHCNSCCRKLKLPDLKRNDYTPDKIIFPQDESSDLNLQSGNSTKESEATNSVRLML

[2] = tested on: HeLa; assay: Antiproliferative activity against human HeLa cells assessed as inhibition of cell proliferation at 10 uM incubated for 72 hrs by Cell-titer-Glo cell viability assay; type: functional
[3] = tested on: MCF7; assay: Antiproliferative activity against human MCF7 cells assessed as inhibition of cell proliferation at 10 uM incubated for 72 hrs by Cell-titer-Glo cell viability assay; type: functional; conditions: MCF7, 72 h
[4] = Antiproliferative activity against human MCF10A cells assessed as inhibition of cell proliferation at 10 uM incubated for 72 hrs by Cell-titer-Glo cell viability assay; type: cell-based, MCF-10A
[5] = Antiproliferative activity against mouse NIH/3T3 cells assessed as inhibition of cell proliferation at 10 uM incubated for 72 hrs by Cell-titer-Glo cell viability assay; type: cell-based, NIH3T3
[6] = Antiproliferative activity against mouse B16F10 cells assessed as inhibition of cell proliferation at 10 uM incubated for 72 hrs by Cell-titer-Glo cell viability assay; type: functional; conditions: B16-F10, 72 h
[7] = tested on: Y79; assay: Antiproliferative activity against human Y79 cells assessed as inhibition of cell proliferation at 10 uM incubated for 72 hrs by Cell-titer-Glo cell viability assay; type: functional; conditions: Y79, 72 h
[8] = Antiproliferative activity against human DMS53 cells assessed as inhibition of cell proliferation at 10 uM incubated for 72 hrs by Cell-titer-Glo cell viability assay; type: functional; conditions: DMS-53, 72 h
[9] = Antiproliferative activity against human WI38 cells assessed as inhibition of cell proliferation at 10 uM incubated for 72 hrs by Cell-titer-Glo cell viability assay; type: cell-based, WI-38
[10] = Selectivity index, ratio of antiproliferative activity against human WI38 cells to antiproliferative activity against human HeLa cells
[11] = Selectivity index, ratio of antiproliferative activity against human WI38 cells to antiproliferative activity against human MCF7 cells
[12] = Selectivity index, ratio of antiproliferative activity against human WI38 cells to antiproliferative activity against mouse B16F10 cells; design: species or system B16-F10
[13] = Selectivity index, ratio of antiproliferative activity against human WI38 cells to antiproliferative activity against human Y79 cells; design: species or system WI-38
[14] = Selectivity index, ratio of antiproliferative activity against human WI38 cells to antiproliferative activity against human DMS53 cells; design: species or system DMS-53
[15] = Selectivity index, ratio of antiproliferative activity against human MCF10A cells to antiproliferative activity against human HeLa cells
[16] = Selectivity index, ratio of antiproliferative activity against human MCF10A cells to antiproliferative activity against human MCF7 cells; design: species or system MCF-10A
[17] = Selectivity index, ratio of antiproliferative activity against human MCF10A cells to antiproliferative activity against mouse B16F10 cells; design: species or system MCF-10A
[18] = Selectivity index, ratio of antiproliferative activity against human MCF10A cells to antiproliferative activity against human Y79 cells; design: species or system MCF-10A
[19] = Selectivity index, ratio of antiproliferative activity against human MCF10A cells to antiproliferative activity against human DMS53 cells; design: species or system MCF-10A
[20] = Selectivity index, ratio of antiproliferative activity against mouse NIH/3T3 cells to antiproliferative activity against human HeLa cells
[21] = Selectivity index, ratio of antiproliferative activity against mouse NIH/3T3 cells to antiproliferative activity against human MCF7 cells
[22] = Selectivity index, ratio of antiproliferative activity against mouse NIH/3T3 cells to antiproliferative activity against mouse B16F10 cells; design: species or system B16-F10
[23] = Selectivity index, ratio of antiproliferative activity against mouse NIH/3T3 cells to antiproliferative activity against human Y79 cells
[24] = Selectivity index, ratio of antiproliferative activity against mouse NIH/3T3 cells to antiproliferative activity against human DMS53 cells; design: species or system DMS-53
[25] = Antiproliferative activity against human WERI cells assessed as inhibition of cell proliferation at 10 uM by propidium iodide uptake based fluoroskan microplate reader analysis; type: functional
[26] = Antiproliferative activity against human WERI cells assessed as inhibition of cell proliferation at 5 uM by propidium iodide uptake based fluoroskan microplate reader analysis; type: functional
[27] = Antiproliferative activity against human WERI cells assessed as inhibition of cell proliferation by measuring normalized ratio of propidium iodide uptake at 5 uM by propidium iodide uptake based fluoroskan microplate reader analysis; type: functional
[28] = Antiproliferative activity against human WERI cells assessed as inhibition of cell proliferation by measuring normalized ratio of propidium iodide uptake at 10 uM by propidium iodide uptake based fluoroskan microplate reader analysis; type: functional
[29] = Antiproliferative activity against human WERI cells assessed as inhibition of cell proliferation by propidium iodide uptake based fluoroskan microplate reader analysis; type: functional
[30] = tested on: Cerebral cortex neuron; assay: Neuroprotection in CD1 mouse primary cortical neuron assessed as reduction in stretch injury-induced cell death at 2 to 10 uM dosed 1 hr after injury by propidium iodide straining based; type: functional
[31] = tested on: Rattus norvegicus; assay: Neuroprotection in Sprague-Dawley rat model of fluid percussion injury assessed as reduction in neuronal brain damage dosed before injury at 2 to 10 uM by TTC staining based oscilloscopy; type: functional, organism-based
[32] = organism: Rattus norvegicus; assay: Neuroprotection in Sprague-Dawley rat model of fluid percussion injury assessed as increase in balance by measuring mean latency measured on first day post injury by rotarod performance test relative to untreated control; type: functional
[33] = tested on: Rattus norvegicus; assay: Neuroprotection in Sprague-Dawley rat model of fluid percussion injury assessed as improvement in learning and memory tasks by measuring latency to reach platform dosed 1 hr after lateral fluid percussion injury by Morris water maze test; type: functional, organism-based
[34] = tested on: Rattus norvegicus; assay: Neuroprotection in Sprague-Dawley rat model of fluid percussion injury assessed as reduction in neuronal damage dosed 1 hr after injury by TTC staining based oscilloscopy; type: functional, organism-based
[35] = organism: Rattus norvegicus; assay: Neuroprotection in Sprague-Dawley rat model of fluid percussion injury assessed as distance traveled by rotarod performance test relative to untreated control; type: functional, organism-based
[36] = organism: Rattus norvegicus; assay: Neuroprotection in Sprague-Dawley rat model of fluid percussion injury assessed as activity parameters by rotarod performance test relative to untreated control; type: functional, organism-based

SMILES | inhibition at 10 µM [2] [%] | inhibition at 10 µM [3] [%] | inhibition at 72 h, 10 µM [4] [%] | inhibition at 72 h, 10 µM [5] [%] | inhibition at 10 µM [6] [%] | inhibition at 10 µM [7] [%] | inhibition at 10 µM [8] [%] | inhibition at 72 h, 10 µM [9] [%] | Selectivity Index [10] | Selectivity Index [11] | Selectivity Index [12] | Selectivity Index [13] | Selectivity Index [14] | Selectivity Index [15] | Selectivity Index [16] | Selectivity Index [17] | Selectivity Index [18] | Selectivity Index [19] | Selectivity Index [20] | Selectivity Index [21] | other results
COc1ccc2c(c1)CCN=C2c1sc2ccccc2c1Cl | > 40 | > 40 | > 40 | > 40 | > 40 | > 40 | > 40 | > 40 | 20 | 20 | 20 | 20 | 20 | 20 | 20 | 20 | 20 | 20 | 20 | 20 | IC50 [1]: 5 µM; Selectivity Index [22]: 20; Selectivity Index [23]: 20; Selectivity Index [24]: 20; inhibition at 10 µM [25]: 42%; inhibition at 5 µM [26]: 18%; Ratio [27]: 0.06; Ratio [28]: 0.035; IC50 [29]: 1.19 µM
Cc1c(Cc2ccc(Cl)c(Cl)c2)c(=O)oc2cc(O)ccc12 |  |  |  |  |  |  |  |  |  |  |  |  |  |  |  |  |  |  |  |  | Activity [30]: Active; Activity [31]: Active; fold change (FC) [32]: 2; Activity [33]: Active; Activity [34]: Active; Activity [35]: Active; Activity [36]: Active
COc1ccc(C(=O)c2sc3ccccc3c2Cl)cc1 | > 40 | > 40 | > 40 | > 40 | > 40 | > 40 | > 40 | > 40 | 20 | 20 | 20 | 20 | 20 | 20 | 20 | 20 | 20 | 20 | 20 | 20 | Selectivity Index [22]: 20; Selectivity Index [23]: 20; Selectivity Index [24]: 20; Ratio [27]: 0.305; Ratio [28]: 0.063; IC50 [29]: 4 µM
